This note sets out measurements from PMC12484723, “COOKIE-Pro: covalent inhibitor binding kinetics profiling on the proteome scale” (Nature Communications, 2025).

Molecules are shown by their SMILES.

For one assay, the target named is T1, TEC kinase (Homo sapiens, UniProt P42680).
T1 sequence (P42680 1-631): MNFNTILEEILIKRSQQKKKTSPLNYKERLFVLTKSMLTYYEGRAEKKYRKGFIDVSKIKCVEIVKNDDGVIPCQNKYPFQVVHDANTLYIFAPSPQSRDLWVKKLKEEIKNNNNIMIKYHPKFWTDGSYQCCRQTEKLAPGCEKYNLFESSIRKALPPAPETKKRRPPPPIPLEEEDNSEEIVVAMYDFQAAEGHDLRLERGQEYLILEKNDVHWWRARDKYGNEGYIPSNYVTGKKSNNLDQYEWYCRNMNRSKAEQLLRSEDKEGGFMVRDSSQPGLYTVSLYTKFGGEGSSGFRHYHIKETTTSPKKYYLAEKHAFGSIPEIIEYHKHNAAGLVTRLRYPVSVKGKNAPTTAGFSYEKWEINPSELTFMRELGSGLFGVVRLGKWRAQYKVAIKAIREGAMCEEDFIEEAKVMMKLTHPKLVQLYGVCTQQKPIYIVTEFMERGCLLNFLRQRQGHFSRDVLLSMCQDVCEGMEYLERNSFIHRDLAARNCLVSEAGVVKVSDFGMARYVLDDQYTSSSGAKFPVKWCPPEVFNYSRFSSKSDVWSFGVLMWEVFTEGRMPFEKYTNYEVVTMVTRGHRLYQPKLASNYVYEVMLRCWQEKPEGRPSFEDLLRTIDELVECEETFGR
Put plainly: COOKIE-Pro competition chemoproteomics in permeabilized Ramos cells (kinact, KI). Format: cell-based.

In a further assay the target is BLK (Homo sapiens, UniProt P51451). The description is as above. The format is cell-based.
Chain of BLK (P51451 2-505): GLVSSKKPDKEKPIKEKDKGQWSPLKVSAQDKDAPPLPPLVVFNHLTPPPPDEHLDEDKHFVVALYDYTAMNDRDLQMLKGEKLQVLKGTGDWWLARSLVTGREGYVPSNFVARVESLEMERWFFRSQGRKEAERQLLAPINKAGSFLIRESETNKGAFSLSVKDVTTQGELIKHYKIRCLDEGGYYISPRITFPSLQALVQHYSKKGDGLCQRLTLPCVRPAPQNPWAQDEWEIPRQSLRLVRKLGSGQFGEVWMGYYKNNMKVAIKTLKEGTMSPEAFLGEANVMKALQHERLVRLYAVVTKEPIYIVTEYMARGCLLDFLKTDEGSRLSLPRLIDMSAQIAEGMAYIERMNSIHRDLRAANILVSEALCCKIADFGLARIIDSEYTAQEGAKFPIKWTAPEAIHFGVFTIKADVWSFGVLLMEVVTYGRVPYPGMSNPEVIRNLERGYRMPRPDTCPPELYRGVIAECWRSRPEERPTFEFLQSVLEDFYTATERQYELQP

For the compound `C=CC(=O)N1CCC[C@@H](n2nc(-c3ccc(Oc4ccccc4)cc3)c3c(N)ncnc32)C1` [ibrutinib], the values for the KI (inactivation) at TEC kinase and at BLK were 233 nM and 28 nM, respectively.
